The source of these data is publication PMC6754133 (PLoS ONE, 2019).

Read-outs that look alike come from different tables or passages of the source.

Assay [1] addresses T1, SMO (Mus musculus, UniProt P56726).
T1 construct: host or cells: NIH 3T3 Gli-RE
The conditions noted are these: literature value, cited from earlier work; for IC50: read-out: Gli-RE-luciferase assay IC50.

For a further assay, the system named is Hh/SMO pathway. The assay is described as follows: Gli-Luciferase functional assay, NIH 3T3 Gli-RE cells stimulated with ShhN. The conditions noted are these: for Inhibition of ShhN-induced Hh signaling (in words): NIH 3T3 Gli-RE cells, ShhN stimulated; for Span of concentration response curve: data as percent of the maximum luminescence in the absence of antagonists, Fig 4. Type of assay: cell-based. Here is the method:
After 24 hours, when the cells reached confluency, the culture medium was replaced with 80 μL per well of assay medium [Optimem ± 10 mM HEPES ± 1 mM Sodium Pyruvate + 1× MEM NEAA]. […] Then the cells were stimulated by addition of either ShhN-conditioned media or control media (DMEM±10%BCS) at a final concentration of 10%. Following incubation of the plate for at least 28 hours at 37°C, the cells were simultaneously lysed and supplemented with a luciferase substrate by addition of equal volume of Steady-Glo reagent (Promega, E2520) directly to the assay media. Plates were mixed by pipetting, centrifuged to eliminate foam, incubated for 10 minutes, and analyzed using Perkin Elmer Viktor X luminescence plate reader. The results were analyzed using a non-linear regression (Prism 6, GraphPad Software, La Jolla, CA). Data were normalized to the maximal response observed for ShhN-stimulated cells in the same experiment. A sigmoidal-dose response curve was used as a model for data analysis and IC50 value calculation.

The target in another assay is T2, mSMO (Mus musculus, UniProt P56726).
T2 construct: host or cells: HEK293T
T2 sequence (P56726 33-793): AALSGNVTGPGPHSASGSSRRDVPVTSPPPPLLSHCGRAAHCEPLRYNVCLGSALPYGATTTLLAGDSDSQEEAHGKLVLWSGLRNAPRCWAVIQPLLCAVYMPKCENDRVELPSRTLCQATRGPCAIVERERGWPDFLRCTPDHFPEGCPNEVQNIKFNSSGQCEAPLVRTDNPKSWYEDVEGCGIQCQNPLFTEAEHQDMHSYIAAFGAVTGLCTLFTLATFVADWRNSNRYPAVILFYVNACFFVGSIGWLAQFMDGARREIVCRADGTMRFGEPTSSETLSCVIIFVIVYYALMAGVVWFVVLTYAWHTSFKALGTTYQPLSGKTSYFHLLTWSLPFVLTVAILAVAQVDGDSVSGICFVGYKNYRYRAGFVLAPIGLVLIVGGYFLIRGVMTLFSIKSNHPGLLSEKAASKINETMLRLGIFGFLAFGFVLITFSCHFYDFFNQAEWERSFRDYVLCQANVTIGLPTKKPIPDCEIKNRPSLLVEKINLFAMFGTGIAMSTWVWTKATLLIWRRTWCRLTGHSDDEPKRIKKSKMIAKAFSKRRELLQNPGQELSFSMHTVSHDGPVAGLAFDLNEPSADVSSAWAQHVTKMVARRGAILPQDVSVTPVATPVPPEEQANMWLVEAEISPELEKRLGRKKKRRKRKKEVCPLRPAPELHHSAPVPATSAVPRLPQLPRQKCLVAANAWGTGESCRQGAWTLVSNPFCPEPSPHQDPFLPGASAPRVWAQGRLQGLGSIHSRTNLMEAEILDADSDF
The assay is described as follows: BODIPY-Cyclopamine competition binding assay, flow cytometry, HEK293T cells transiently transfected with mSMO. The conditions noted are these: BODIPY-Cyclopamine 5 nM. As for the experimental part:
Prior to transfection, cell culture media was replaced with DMEM + 10%FBS for mSMO transfection and with DMEM + 10%BCS for ShhN transfection. The transfected dish was incubated for approximately 24 hours at 37°C. For the production of ShhN conditioned medium, the culture medium from ShhN-transfected HEK293T cells was collected, aliquoted in single use 1.5 mL Eppendorf tubes and either used fresh or stored at -20°C.
HEK293T cells transiently transfected with mSMO were lifted with trypsin (0.25%) and replated at 6×10^4 cells in 80 μL DMEM + 10%FBS per well in a 96 well tissue-culture treated plate (Falcon, 353219). The plate was incubated at 37°C for 24 hours. Serial dilutions of test compounds (10x final concentrations) were prepared in culture media. 10 μL of diluted compounds or control media were added to the plate after which the plate was incubated at 37°C for 10 min. […] Following at least 1.5 hours incubation at 37°C in 5% CO2, cells were lifted by vigorous pipetting, transferred to conical bottom 96-well plates, and centrifuged at 400 × g for 5 min at 4°C. Supernatant was discarded, cells were re-suspended in 300 μL of PBS + 0.5% BSA (freshly prepared), and the plate was analyzed with Guava benchtop flow cytometer. The results were interpreted with FlowJo software (version v10.1). Dose response curves were constructed in Prism 6 (GraphPad Software, La Jolla, CA).

The next assay has as its system MB-PDX and DAOY cells. Briefly: alamarBlue cell viability assay, adherent versus NS conditions. Type of assay: cell-based, human. As for the experimental part:
The results were analyzed using a non-linear regression (Prism 6, GraphPad Software, La Jolla, CA).

For assay [2], the system named is MB-PDX cells. The assay is described as follows: Neurosphere formation assay. Type of assay: cell-based, human. The settings on record: MB-PDX, 10 μM, at least 7 days, 1–2 cells per well.
Protocol: (§2) The final concentration of test compounds in the wells was 10 μM. Cells were incubated at 37 °C for at least seven days. After incubation percent of wells positive with neural stem cell-derived sphere colonies were calculated for each test condition and compared.
Assay [3] deals with DAOY cells. Briefly: Neurosphere formation assay. Type of assay: cell-based, human. The settings on record: DAOY, 10 μM, at least 7 days, 1–2 cells per well.
Protocol: as §2
Assay [4] has as its system DAOY cells. Briefly: cells. The conditions noted are these: Homo sapiens, 72 h, read-out: Cell viability assay IC50.
In assay [5] the test system is nuclear Gli-1 in DAOY cells. Briefly: Western blot quantitation of nuclear Gli-1. The conditions noted are these: NS conditions, 24-hour treatment, 5 μM (Fig 6f, S4 Fig). The assay is classed as cell-based, human. Here is the method: (§1) Nuclear fractions were prepared from cell pellets according to the method of Schreiber et. al.[81] with minor modifications. […] After 24 hours, cells were lifted from the wells by pipetting, transferred to 1.5 mL Eppendorf tubes, centrifuged at 10,000 x g for 1 minutes at 4°C, and washed once in PBS. Following supernatant removal by vacuum, cells were lysed using a plasma membrane lysis buffer [10 mM HEPES; pH 7.5, 10 mM KCl, 0.1 mM EDTA, 1 mM dithiothreitol (DTT), 0.5% Nonidet P‐40 and 0.5 mM PMSF along with 1× protease inhibitor cocktail (Sigma)] and allowed to swell on ice for 15‐20 min with intermittent mixing. Next, tubes were vortexed to disrupt cell membranes and then centrifuged at 12,000 × g at 4°C for 10 min. […] The pelleted nuclei were washed with the plasma membrane lysis buffer and re-suspended in the nuclear extraction buffer [20 mM HEPES (pH 7.5), 400 mM NaCl, 1 mM EDTA, 1 mM DTT, 1 mM PMSF with 1× protease inhibitor cocktail] and incubated on ice for 30 min. The tubes were centrifuged at 12,000 ×g for 25 min at 4°C and the supernatant (now containing the soluble fraction of the cell nuclei) was collected. Total protein concentrations were determined using the Bio-Rad Protein Assay (Bio-Rad, Hercules, CA). Nuclear extracts containing the total of 40 μg protein were separated on a 10% Tris-SDS PAGE gel (Bio-Rad Mini-PROTEAN® TGX). Gels were transferred on nitrocellulose membranes using Bio-Rad TransBlot system, after which the membranes were blocked in the blocking buffer [5% nonfat dry milk in 1× Tris Buffer Saline + 0.1% Tween 20 (TBST)] for 2 hours at room temperature. Following blocking, the membranes were washed four times with TBST (5 minutes gentle rocking per wash) and incubated overnight with primary antibody Rabbit anti-Gli-1 (Cell signaling, #C68H3); 1:250 dilution in TBST-Milk at 4°C with gentle rocking. Membranes were washed three times with TBST for 5 min each.

In assay [6] the test system is nuclear Gli-1 in MB-PDX cells. Briefly: Western blot quantitation of nuclear Gli-1. The assay is classed as cell-based, human. The settings on record: NS conditions, 24-hour treatment, 5 μM (Fig 6f, S4 Fig). Here is the method:
as §1

Assay [7] relates to firefly luciferase under control of cAMP response element (CRE). Briefly: CRE-luciferase counter assay in HEK293s cells. The settings on record: different concentrations. Type of assay: cell-based. As for the experimental part: (a) The drugs were tested at different concentrations in HEK293s cells stably transfected with firefly luciferase under control of cAMP response element (CRE) (pGL4.29[luc2P/CRE/Hygro], Promega). […] Raw, non-normalized luminescence values are presented, to facilitate the assessment of the extent of inhibition. Shown is a single representative experiment out of the multiple experiments performed on different days. (Mean ± SD)

For assay [8], the system named is MB-PDX cells. Briefly: cells. The conditions noted are these: Homo sapiens, 72 h, read-out: Cell viability assay IC50.
Assay [9] deals with T1, SMO. The assay is described as follows: Competitive functional inhibition assay against SAG, Gli-Luciferase, NIH 3T3 Gli-RE cells. The assay is classed as cell-based. The conditions noted are these: read-out: EC50 of SAG (printed as IC50 in Fig 5c); SAG alone. As for the experimental part: After 24 hours, when the cells reached confluency, the culture medium was replaced with 80 μL per well of assay medium [Optimem ± 10 mM HEPES ± 1 mM Sodium Pyruvate + 1× MEM NEAA]. […] Following incubation of the plate for at least 28 hours at 37°C, the cells were simultaneously lysed and supplemented with a luciferase substrate by addition of equal volume of Steady-Glo reagent (Promega, E2520) directly to the assay media. Plates were mixed by pipetting, centrifuged to eliminate foam, incubated for 10 minutes, and analyzed using Perkin Elmer Viktor X luminescence plate reader. The results were analyzed using a non-linear regression (Prism 6, GraphPad Software, La Jolla, CA). Data were normalized to the maximal response observed for ShhN-stimulated cells in the same experiment. A sigmoidal-dose response curve was used as a model for data analysis and IC50 value calculation.

The mark [10] stands for this setting: Mus musculus, NIH3T3, NIH3T3 Gli-RE cells, ShhN-conditioned media, n = 3, read-out: Hh/SMO pathway inhibition IC50.
The mark [11] stands for this setting: NIH3T3 Gli-RE cells, ShhN-conditioned media, n = 3, read-out: Hh/SMO pathway inhibition IC50.

T1 sequence (P56726 33-793): as above

On to `Cc1csc(CN[C@@H]2Cc3ccc(NC(=O)c4cccc(C)c4-c4ccc(C(F)(F)F)cc4)cc3C2)n1` [23b_ NV, 3-methyl-N-[(2R)-2-[(4-methyl-1,3-thiazol-2-yl)methylamino]-2,3-dihydro-1H-inden-5-yl]-2-[4-(trifluoromethyl)phenyl]benzamide], for which the IC50 on SMO [1] was 17 nM.
For the molecule `COC(=O)Nc1nc2ccc(C(=O)c3ccccc3)cc2[nH]1` [Mebendazole], the IC50 in the assay on Hh/SMO pathway (setting [10]) stood at 327 nM; in the assay on Hh/SMO pathway (setting [11]) it was 328 nM. In the assay on Hh/SMO pathway, the “Inhibition of ShhN-induced Hh signaling (in words)” value (“Inhibition … (in words)” below) was “inhibited ShhN-induced Hh signaling in a dose-dependent manner”. In the assay with Hh/SMO pathway, the “Span of concentration response curve” value came to 108.1. Further, at mSMO, the “Displacement of BODIPY-Cyclopamine from SMO (in words)” value (“Displacement of BODIPY-Cyclopamine” for short) was “no effect”.
Take `CC1=C2C[C@H]3[C@@H](CC=C4C[C@@H](O)CC[C@@]43C)[C@@H]2CC[C@]12O[C@@H]1C[C@H](C)CN[C@H]1[C@H]2C` [Cyclopamine]: the IC50 stood at 189 nM in the assay on Hh/SMO pathway (Mus musculus, NIH3T3, read-out: Hh/SMO pathway inhibition IC50, NIH3T3 Gli-RE cells, ShhN-conditioned media, n = 3) and 189 nM with Hh/SMO pathway (read-out: Hh/SMO pathway inhibition IC50, NIH3T3 Gli-RE cells, ShhN-conditioned media, n = 3). In addition, the “Span of concentration response curve” value in the assay with Hh/SMO pathway is given as 105.7.
In the case of `C#Cc1cccc(Nc2ncnc3cc(OCCOC)c(OCCOC)cc23)c1` [Erlotinib], the “Effect on cell viability (in words)” value with MB-PDX and DAOY cells is on record as “did not affect cell viability under any condition”. The “Inhibition of NS formation, wells” value in the assay with MB-PDX cells [2] and in the assay on DAOY cells [3] was “ineffective” throughout. Also, the IC50 in the assay on DAOY cells [4] turned out to be 11000 nM.
Consider `CS(=O)(=O)Nc1ccc([N+](=O)[O-])cc1Oc1ccccc1` [Nimesulide], for which, in the assay on Hh/SMO pathway, the “Inhibition … (in words)” value is “inactive” and the “Span of concentration response curve” value is -3.874. In addition, the “Displacement of BODIPY-Cyclopamine” value at mSMO is reported as “no effect”.
For the molecule `CN(C(=O)c1ccc(F)cc1C(F)(F)F)C1CCN(c2nnc(-c3ccnn3C)c3ccccc23)CC1` [Taladegib (LY2940680), Taladegib], at SMO [1], the IC50 is 2.6 nM.
Regarding `C[C@@]12CN(C(=O)Nc3ccnn3-c3ccccc3)CCN1C(=O)N([C@H]1C[C@@H]1c1ccccc1)C2=O` [MK_5710, (8aS)-8a-methyl-1,3-dioxo-2-[(1S,2R)-2-phenylcyclopropyl]-N-(1-phenyl-1H-pyrazol-5-yl)hexahydroimid azo[1,5-a]pyrazine-7(1H)-carboxamide], the IC50 on SMO [1] was 17 nM.
As to `Cc1nn(-c2ccccc2)c(C)c1/C=N/N1CCN(Cc2ccccc2)CC1` [SANT-1], at SMO [1], the IC50 is 20 nM.
On to `Cc1c(C(=O)Nc2ccc(N3C[C@@H](C)O[C@@H](C)C3)nc2)cccc1-c1ccc(OC(F)(F)F)cc1` [Sonidegib (NVP-LDE225), Sonidegib], for which the IC50 at SMO [1] was 2.5 nM.
In the case of `O=C1CCC(N2C(=O)c3ccccc3C2=O)C(=O)N1` (stereo not drawn) [Thalidomide], in the assay on Hh/SMO pathway, the “Inhibition … (in words)” value was “inactive” and the “Span of concentration response curve” value is reported as -12.85. Moreover, the “Displacement of BODIPY-Cyclopamine” value on mSMO is reported as “no effect”.
For the molecule `CS(=O)(=O)c1ccc(C(=O)Nc2ccc(Cl)c(-c3ccccn3)c2)c(Cl)c1` [Vismodegib], the IC50 worked out at 4.08 nM in the assay on Hh/SMO pathway (setting [10]), 4 nM in the assay with Hh/SMO pathway (setting [11]) and 52000 nM with MB-PDX cells [8]. The “Inhibition of NS formation, wells” value in the assay with MB-PDX cells [2] and in the assay on DAOY cells [3] was “ineffective” throughout. In addition, the “Nuclear Gli-1, mean, % of untreated samples” value in assay [5] is 75%; in [6] it was 67%. The “Effect on CRE-driven luciferase activity (independent of SMO)” value in [7] is reported as “lack of dose-dependent effect”.
On to `CCC(C)n1ncn(-c2ccc(N3CCN(c4ccc(OCC5COC(Cn6cncn6)(c6ccc(Cl)cc6Cl)O5)cc4)CC3)cc2)c1=O` (stereo not drawn) [Itraconazole], for which the IC50 on SMO [1] is 800 nM.
For `CNCc1ccc(C)c(NC(=O)c2ccc(Nc3nc(-c4ccccc4)c4ccccc4n3)cc2)c1` [BMS_833923], the IC50 on SMO [1] was 6 to 35 nM.
`CC1=C2C[C@H]3[C@@H](CC[C@@H]4C[C@H](NS(C)(=O)=O)CC[C@@]43C)[C@@H]2CC[C@@]2(C1)O[C@@H]1C[C@H](C)CN[C@H]1[C@H]2C` [Saridegib]: the IC50 at SMO [1] is 9 nM.
As for `CNC1CCC(N(Cc2cccc(-c3ccncc3)c2)C(=O)c2sc3ccccc3c2Cl)CC1` (stereo not drawn) [SAG], the EC50 on SMO [9] is 79 nM; on SMO [1] (read-out: Gli-RE-luciferase assay EC50 (for SAG the value is EC50 not IC50), agonist), 3 nM.
